Data published in patent US5385829A, “Method of assaying for acyl-L-carnitines and short-chain acyl-carnitines” (priority 1990, dated 1995).

Tests used:
[1] = test system: L-carnitine dehydrogenase; test: Substrate specificity of L-carnitine dehydrogenase; assay type: biochemical; conditions: L-carnitine dehydrogenase from Alcaligenes sp. No. 981
Procedure: 1 ml of the reaction solution was placed in a small test tube and incubated at 37° C. for 5 mins. and thereto was added 0.02 ml of the […] solution to be examined, to cause the reaction, with agitation. After 10 mins. 2 ml of 0.1N aq. HCl were added thereto to terminate the reaction and the A550 nm of the solution was measured to obtained the absorbance A1.
On the other hand, the same procedures were repeated for a reaction solution in which the L-carnitine was omitted, to obtain the absorbance A0.

[2] = test system: L-carnitine dehydrogenase; test: Km values and coenzyme reactivity of L-carnitine dehydrogenase; assay type: biochemical, Alcaligenes sp. No. 981; conditions: for Km: L-carnitine dehydrogenase, 100 mM tris-HCl buffer pH 9.0
Procedure: The L-carnitine dehydrogenase used in preparing the analysis reagent for determining the amount of L-carnitine, should have reactivity to the substrate, namely, L-carnitine, and may be employed in combination with a coenzyme such as an NAD (preferably NAD or thio-NAD). Such reactivity can be confirmed using the combination of such coenzyme with the substrate. For example, it has been confirmed that, when using L-carnitine as the substrate and thio-NAD as the coenzyme in 100 mM tris-HCl buffer solution (pH 9.0), the L-carnitine dehydrogenase produced from Alcaligenes sp.
Km value for NAD^+ was determined by varying the concentration of the NAD^+ in a reaction solution containing 100 mM tris-HCl buffer solution (pH 9.0). 5 units of diaphorase (a product of Toyo Jozo), 0.025% of NBT (a product of Wako Pure Chemical Ind.), 1% of Tween 80 (a product of Wako Pure Chemical Ind.) and 50 mM L-carnitine, whereby a value of 0.141 mM was obtained.

Row | Compound | Km [2] | enzymatic activity relative to the activity when using NAD as the coenzyme ([2]; L-carnitine as substrate, 100 mM tris-HCl pH 9.0) | Relative Specificity % [1] | Km ([2]; listed as NAD^+)
1 | C[N+](C)(C)CC(=O)[O-] [Glycinebetaine] | – | – | 0% | –
2 | NCCCC[C@H](N)C(=O)O [Lysine] | – | – | 0% | –
3 | NC(=O)c1ccc[n+]([C@@H]2O[C@H](COP(=O)([O-])OP(=O)(O)OC[C@H]3O[C@@H](n4cnc5c(N)ncnc54)[C@H](O)[C@@H]3O)[C@@H](O)[C@H]2O)c1 [NAD, nicotinamide adenine dinucleotide] | 140 µM | – | – | 141 µM
4 | Glucose | – | – | 0% | –

Now from value to compound, other results behind:

Row | Km [2] | enzymatic activity relative to the activity when using NAD as the coenzyme ([2]; L-carnitine as substrate, 100 mM tris-HCl pH 9.0) | Compound | Relative Specificity % [1] | Km ([2]; listed as NAD^+)
5 | 9300 µM | – | C[N+](C)(C)C[C@H](O)CC(=O)[O-] [L-carnitine] | 100% | –
6 | 490 µM | about 15% | NC(=S)c1ccc[n+]([C@@H]2O[C@H](COP(=O)([O-])OP(=O)(O)OC[C@H]3O[C@@H](n4cnc5c(N)ncnc54)[C@H](O)[C@@H]3O)[C@@H](O)[C@H]2O)c1 [thio-NAD, thionicotinamide adenine dinucleotide] | – | –
